From publication PMC8901636, “Preclinical studies of Flonoltinib Maleate, a novel JAK2/FLT3 inhibitor, in treatment of JAK2^V617F-induced myeloproliferative neoplasms” (Blood Cancer Journal, 2022)

Legend:
Ba/F3-EPOR = test: MTT assay for cell proliferation; assay type: cell-based, Murine; settings: Mus musculus; Ba/F3-EPOR; IL-3-dependent growth; MTT 72 h; read-out: IC50(μM) ± SD, tumor cell proliferation
Method: (§1) For in vitro inhibition assays, cells were seeded in 96-well culture plates with a density of 15,000–20,000 cells/well after the cells reached 70–90% confluence. […] MTT (3-(4, 5-dimethylthiazol-2-yl)-2, 5-diphenyltetrazolium bromide) (Cat. No. 1334GR001; BioFroxx) assay was conducted in order to examine viability. The IC50 values were fitted using GraphPad Prism 7.0.

Ba/F3-FLT3-ITD^F691 = test: MTT assay for cell proliferation; assay type: cell-based, Murine; settings: Mus musculus; Ba/F3-FLT3-ITD^F691; MTT 72 h; read-out: IC50(μM) ± SD, tumor cell proliferation
Method: as §1

Bioavailability [1] = settings: rat, in vivo; rats; data not shown
Ba/F3-JAK2^V617F cells = test: Ba/F3-JAK2^V617F disease model
[2] = tested on: Ba/F3-EPOR-JAK2^V617F cells; test: Ba/F3-EPOR-JAK2^V617F malignancy mouse model; settings: 30 mg/kg bid p.o.
Ba/F3-EPOR-JAK2^V617F = test: MTT assay for cell proliferation; assay type: cell-based, Murine; settings: Mus musculus; Ba/F3-EPOR-JAK2^V617F; MTT 72 h; read-out: IC50(μM) ± SD, tumor cell proliferation
Method: as §1

Bioavailability [3] = settings: dog, in vivo; dogs; data not shown
Ba/F3-FLT3-ITD = test: MTT assay for cell proliferation; assay type: cell-based, Murine; settings: Mus musculus; Ba/F3-FLT3-ITD; MTT 72 h; read-out: IC50(μM) ± SD, tumor cell proliferation
Method: as §1

Ba/F3-FLT3-ITD^D835V = test: MTT assay for cell proliferation; assay type: cell-based, Murine; settings: Mus musculus; Ba/F3-FLT3-ITD^D835V; MTT 72 h; read-out: IC50(μM) ± SD, tumor cell proliferation
Method: as §1

Ba/F3-JAK2^V617F = test: MTT assay for cell proliferation; assay type: cell-based, Murine; settings: Mus musculus; Ba/F3-JAK2^V617F; MTT 72 h; read-out: IC50(μM) ± SD, tumor cell proliferation
Method: as §1

JAK2^V617F = JAK2^V617F bone marrow transplantation (BMT) myelofibrosis model; assay type: in vivo, BALB/c mice; settings: 30 mg/kg bid p.o.
Ba/F3-JAK2^WT = test: MTT assay for cell proliferation; assay type: cell-based, Murine; settings: Mus musculus; Ba/F3-JAK2^WT; IL-3-dependent growth; MTT 72 h; read-out: IC50(μM) ± SD, tumor cell proliferation
Method: as §1

MV-4-11 = test: MTT assay for cell proliferation; assay type: cell-based; settings: Homo sapiens, MV4-11; MV-4-11; FLT3-ITD expression; MTT 72 h; read-out: IC50(μM) ± SD, tumor cell proliferation
Method: as §1

HEL = test: MTT assay for cell proliferation; assay type: cell-based; settings: Homo sapiens, JAK2V617F, MTT 72 h, read-out: IC50(μM) ± SD, tumor cell proliferation
Method: as §1

Molm-13 = test: MTT assay for cell proliferation; assay type: cell-based; settings: Homo sapiens; Molm-13; FLT3-ITD expression; MTT 72 h; read-out: IC50(μM) ± SD, tumor cell proliferation
Method: as §1

Cc1cnc(Nc2ccc(OCCN3CCCC3)cc2)nc1Nc1cccc(S(=O)(=O)NC(C)(C)C)c1 [Fedratinib, reference compound]
IC50 (Ba/F3-EPOR): 0.97 ± 0.23 µM
IC50 (Ba/F3-FLT3-ITD^F691): 0.74 ± 0.15 µM
bioavailability (Bioavailability [1]): 19%
inhibition of the spleen growth (Ba/F3-JAK2^V617F cells; 30 mg/kg bid p.o., 22 days, figure prints it with a minus sign over Spleen Weight (mg)): 67.44%
median survival (Ba/F3-JAK2^V617F cells; 30 mg/kg bid p.o., vehicle 25 days): 28 days
body weight during treatment (Ba/F3-JAK2^V617F cells; any dose): no obvious body weight decrease
spleen suppression rate ([2]; 16 days): -40.23%
median survival time ([2]; vehicle 19 days): 22 days
IC50 (Ba/F3-EPOR-JAK2^V617F): 1.71 ± 0.04 µM
bioavailability (Bioavailability [3]): 37%
IC50 (Ba/F3-FLT3-ITD): 0.21 ± 0.05 µM
IC50 (Ba/F3-FLT3-ITD^D835V): 0.37 ± 0.04 µM
IC50 (Ba/F3-JAK2^V617F): 0.61 ± 0.13 µM
inhibition of splenomegaly (JAK2^V617F; figure prints it with a minus sign over Spleen Wight (mg)): 90.56%
median survival time (JAK2^V617F; vehicle 133.5 days): > 180 days
IC50 (Ba/F3-JAK2^WT): 0.68 ± 0.12 µM
IC50 (MV-4-11): 0.26 ± 0.11 µM
IC50 (HEL): 0.77 ± 0.36 µM
IC50 (Molm-13): 0.17 ± 0.01 µM
